Assay results as given in ChEMBL document CHEMBL1201862, “PubChem BioAssay data set” (2004).
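Exposure lasted 48 hours, with cells grown in 96-well plates and compounds tested at five concentrations. The concentration for 50% growth inhibition is given as GI50.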 Active and inactive are the calls of the source. No stated cut-off is given here; in the data, active = GI50 up to about 1.1 µM and inactive = higher.

Assays:
Experiment in all cases: growth of human tumour cells (NCI), 48 h
SK-MEL-2 = system: SK-MEL-2
SK-MEL-28 = system: SK-MEL-28
NCI-H23 = system: NCI-H23
IGROV-1 = system: IGROV-1
M14 = system: M14
SNB-19 = system: SNB-19
UO-31 = system: UO-31
A498 = system: A498
SR = system: SR
ACHN = system: ACHN
MOLT-4 = system: MOLT-4
HCC 2998 = system: HCC 2998
SK-OV-3 = system: SK-OV-3
U-251 = system: U-251
OVCAR-3 = system: OVCAR-3
Malme-3M = system: Malme-3M
OVCAR-8 = system: OVCAR-8
COLO 205 = system: COLO 205
UACC-62 = system: UACC-62

Measured: GI50

CC(C)C12C=CC(C)(CC1)n1c(=O)c3cc4ccccc4cc3c(=O)n12 (centres undefined)
inactive: SK-MEL-2 48.3 µM | SK-MEL-28 > 100 µM | NCI-H23 52 µM | IGROV-1 47.8 µM | M14 76.4 µM | SNB-19 40.5 µM | UO-31 24.9 µM | A498 22.5 µM | SR 33.5 µM | ACHN 36.4 µM | MOLT-4 30.8 µM | HCC 2998 33.7 µM | SK-OV-3 52.1 µM | U-251 76 µM | OVCAR-3 46.2 µM | Malme-3M 42.9 µM | OVCAR-8 75.9 µM | COLO 205 41.9 µM

S=c1sc2c(Cl)nc(Cl)nc2n1-c1ccccc1
inactive: UACC-62 14.6 µM | SK-MEL-2 31.7 µM | SK-MEL-28 15.6 µM | NCI-H23 15.7 µM | IGROV-1 18.2 µM | M14 21.1 µM | SNB-19 > 100 µM | UO-31 > 100 µM | A498 > 100 µM | SR 22.3 µM | ACHN > 100 µM | MOLT-4 32.4 µM | HCC 2998 52.4 µM | SK-OV-3 > 100 µM | U-251 31 µM | OVCAR-3 22.9 µM | Malme-3M 8.11 µM | OVCAR-8 36.6 µM | COLO 205 > 100 µM

CCCCC(C(=O)CCC(=O)Nc1ccc(Cl)c(Cl)c1)C(=O)C(C)C (centres undefined)
inactive: UACC-62 19.6 µM | SK-MEL-2 95.5 µM | SK-MEL-28 > 100 µM | NCI-H23 > 100 µM | IGROV-1 > 100 µM | M14 82.8 µM | SNB-19 > 100 µM | UO-31 > 100 µM | A498 > 100 µM | SR > 100 µM | ACHN 31.2 µM | MOLT-4 > 100 µM | HCC 2998 > 100 µM | SK-OV-3 > 100 µM | U-251 > 100 µM | OVCAR-3 > 100 µM | Malme-3M > 100 µM | OVCAR-8 > 100 µM | COLO 205 > 100 µM

O=C(NC12CC3CC(CC(C3)C1)C2)C(=O)c1c[nH]c2ccc([N+](=O)[O-])cc12
inactive: UACC-62 19.1 µM | SK-MEL-2 > 59.8 µM | SK-MEL-28 85.1 µM | NCI-H23 38.7 µM | IGROV-1 > 94.2 µM | M14 34 µM | SNB-19 > 20.1 µM | UO-31 > 47.2 µM | A498 37.8 µM | SR 14 µM | ACHN 90.4 µM | MOLT-4 > 100 µM | HCC 2998 > 100 µM | SK-OV-3 76.6 µM | U-251 10.9 µM | OVCAR-3 24.8 µM | Malme-3M 24.7 µM | OVCAR-8 19 µM | COLO 205 24.5 µM

Nc1ncc(CN2CCCC2)c(-c2ccccc2O)n1
inactive: UACC-62 > 750 µM | SK-MEL-2 > 100 µM | SK-MEL-28 > 750 µM | NCI-H23 > 750 µM | IGROV-1 > 750 µM | M14 > 750 µM | SNB-19 > 750 µM | UO-31 > 750 µM | A498 > 750 µM | SR > 750 µM | ACHN > 750 µM | MOLT-4 > 750 µM | HCC 2998 > 750 µM | SK-OV-3 > 750 µM | U-251 > 750 µM | OVCAR-3 > 750 µM | Malme-3M > 750 µM | OVCAR-8 > 750 µM | COLO 205 > 750 µM
